Data reported in patent US20210038579A1, “Treatment Of Patients With Classic Fabry Disease” (Amicus Therapeutics, Inc., priority 2018, published 2021).
Changes are numbered by the printed parent chain.

Assays:
[1] = molecular target: T1, α-Gal A mutant form p.Ile253Thr (c.758 T > C) (Homo sapiens, UniProt P06280, I253T); assay: HEK assay: α-Gal A activity in HEK-293 cell lysate with migalastat; format: cell-based
T1 construct: expressed in transfected cells; host or cells: HEK-293
T1 sequence (P06280 32-429 I253T): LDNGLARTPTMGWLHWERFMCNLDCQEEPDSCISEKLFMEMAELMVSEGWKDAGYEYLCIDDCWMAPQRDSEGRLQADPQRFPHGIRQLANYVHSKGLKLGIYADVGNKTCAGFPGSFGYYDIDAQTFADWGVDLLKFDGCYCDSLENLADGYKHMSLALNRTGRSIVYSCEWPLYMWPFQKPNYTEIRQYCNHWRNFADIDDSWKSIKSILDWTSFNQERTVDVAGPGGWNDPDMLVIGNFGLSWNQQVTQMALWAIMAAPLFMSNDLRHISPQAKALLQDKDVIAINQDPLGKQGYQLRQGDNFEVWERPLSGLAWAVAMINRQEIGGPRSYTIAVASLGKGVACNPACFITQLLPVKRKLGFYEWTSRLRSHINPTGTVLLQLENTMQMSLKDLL
Description: (§1) Such mutations are also referred to herein as “HEK assay amenable” mutations.
(§2) In this assay, cDNA constructs are created. The corresponding α-Gal A mutant forms are transiently expressed in HEK-293 cells. Cells are then incubated±migalastat (17 nM to 1 mM) for 4 to 5 days. After, α-Gal A levels are measured in cell lysates using a synthetic fluorogenic substrate (4-MU-α-Gal) or by western blot. This has been done for known disease-causing missense or small in-frame insertion/deletion mutations.

[2] = molecular target: T2, α-Gal A mutant form p.Leu300Pro (c.899 T > C) (Homo sapiens, UniProt P06280, L300P); assay: as above; format: cell-based
T2 construct: expressed in transfected cells; host or cells: HEK-293
T2 sequence (P06280 32-429 L300P): T1 sequence (P06280 32-429 I253T) with T222I, L269P
Description: as §1, §2

[3] = system: α-Gal A mutant forms; assay: HEK assay: means over groups of GLA mutations found in enrolled patients; format: cell-based, human; conditions: 10 μM of migalastat
Description: as §1, §2

[4] = system: GL-3 inclusions per kidney interstitial capillary; assay: Phase 3 study, ERT-naïve Fabry patients: kidney histology assessment; format: in vivo, human
From the text: Kidney Histology Assessment. Each patient underwent a baseline kidney biopsy, as well as repeat kidney biopsies at 6 and 12 months. The number of GL-3 inclusions per kidney interstitial capillary per patient at baseline, and at 6 and 12 months was quantitatively assessed in 300 capillaries by 3 independent pathologists blinded to treatment and visit. All values for each individual biopsy at a given time were averaged prior to statistical analysis.
Statistical Analyses for Kidney Interstitial Capillary GL-3 Substrate. The primary Stage 1 (6 month) endpoint (i population with baseline biopsies, n=64) was the proportion of patients in the migalastat and placebo groups with a ≥50% reduction in GL-3 inclusions per kidney interstitial capillary. Two other Stage 1 endpoints were assessed (modified-ITT population: randomized patients with paired baseline and month 6 biopsies; n=60): percent change in GL-3 inclusions per kidney interstitial capillary, and percent of interstitial capillaries with zero GL-3 inclusions.
Efficacy analyses for GL-3 inclusions per kidney interstitial capillary and other pre-specified endpoints in Stage 2 (months 6-12) and the open-label-extension (months 12-24) were based on the modified intention to treat (mITT)—population consisting of randomized patients with mutant α-Gal A enzyme shown to be suitable for migalastat treatment by the validated assay; n=50).
For all outcomes except GL-3 inclusions per kidney interstitial capillary, data are pooled for patients within phenotype subgroups regardless of treatment allocation for the first six months (migalastat or placebo).

[5] = Phase 3 study, ERT-naïve Fabry patients: renal function assessment (eGFRCKD-EPI, mGFRiohexol); format: in vivo, human
Description: Patient Enrollment. […] Study Design. […] Renal Function Assessment. Annualized rates of change (mL/min/1.73 m^2/year) were calculated using Chronic Kidney Disease Epidemiology Collaboration-[…]) and measured iohexol clearance-mGFRiohexol). For all outcomes except GL-3 inclusions per kidney interstitial capillary, data are pooled for patients within phenotype subgroups regardless of treatment allocation for the first six months (migalastat or placebo).

[6] = human, in vivo
Description: Study Design. Following eligibility-baseline assessments (2 months), patients were randomized to Stage 1—6 months of double-blind administration of 150 mg migalastat hydrochloride or placebo every other day. All patients completing Stage 1 were eligible to receive open-label migalastat in Stage 2 (months 6-12) and for an additional year (months 13-24) thereafter. […] Study completers were eligible to enroll in the open-label extension study for up to 5 years.
Safety Analysis and Adverse Events. Randomized patients receiving ≤1 dose were included in the safety analysis, which comprised vital signs, physical exams, electrocardiograms, clinical labs, and adverse events.

[7] = +10 μM migalastat, HEK-293 cell lysate, mean ± SEM, n = 20
[8] = HEK293, 10 μM migalastat minus baseline, read-out: Absolute increase at 10 μM (% WT)
[9] = GLA mutations of enrolled patients reported as associated with the classic phenotype in the literature
[10] = overall amenable population, baseline to month 24

OC[C@H]1NC[C@H](O)[C@@H](O)[C@H]1O [migalastat]
α-Gal A activity at 10 μM (fold over baseline) ([1]; 10 μM migalastat): 2.07 fold over baseline
+Migalastat α-Gal A activity [1, 7]: 23417 ± 1077 nmol/mg/h
+Migalastat α-Gal A activity % WT [1, 7]: 80.2 ± 5.9 % WT
activation at 10 µM [1, 8]: 41.3%
α-Gal A activity at 10 μM (fold over baseline) ([2]; 10 μM migalastat): 10.35 fold over baseline
+Migalastat α-Gal A activity [2, 7]: 13219 ± 412 nmol/mg/h
+Migalastat α-Gal A activity % WT [2, 7]: 37.9 ± 1.2 % WT
activation at 10 µM [2, 8]: 34.2%
mean absolute increase in α-Gal A activity [3, 9]: 24.8 % of WT
mean activity increase over baseline [3, 9]: 8.2 fold over baseline
mean absolute increase in α-Gal A activity ([3]; all other mutations): 24.5 % of WT
mean activity increase over baseline ([3]; all other mutations): 6.8 fold over baseline
mean (SD) change in GL-3 inclusions per kidney interstitial capillary ([4]; classic male patients switched from placebo to migalastat at month 6, next 6 months): −0.7 (0.91)
mean change in GL-3 inclusions ([4]; total amenable patient population, 6 months of migalastat treatment): −0.25
mean change in GL-3 inclusions ([4]; total patient population, after switching from placebo to migalastat at month 6): −0.33
mean (SD) annualized rate of change in eGFRCKD-EPI ([5]; classic male subgroup, baseline (or month 6 for patients randomized to placebo) to month 24, 150 mg migalastat hydrochloride every other day): −0.3 (3.76) mL/min/1.73 m^2
mean (SD) annualized rate of change in mGFRiohexol ([5]; classic males, baseline (or month 6) to month 24): −3.0 (6.04) mL/min/1.73 m^2
median change in mGFRiohexol ([5]; classic males, baseline to month 24): -1.03 mL/min/1.73 m²
reduction in mGFRiohexol in one classic patient ([5]; one classic patient, month 6 to month 24): -16 mL/min/1.73 m²
mean (SD) annualized rate of change in eGFRCKD-EPI ([5]; other patients subgroup, baseline (or month 6) to month 24): −0.3 (4.47) mL/min/1.73 m^2
mean (SD) annualized rate of change in mGFRiohexol ([5]; other patients, baseline (or month 6) to month 24): −1.0 (6.66) mL/min/1.73 m^2
median change in mGFRiohexol ([5]; other patients, baseline to month 24): -0.34 mL/min/1.73 m²
annualized change in eGFRCKD-EPI [5, 10]: −0.3 (0.66) mL/min/1.73 m^2
annualized change in mGFRiohexol [5, 10]: −1.5 (1.33) mL/min/1.73 m^2
deaths [6]: No deaths were reported
